From patent US20250145665A1, “MACROCYCLIC PEPTIDES USEFUL AS MODULATORS OF TNF ALPHA” (Bristol-Myers Squibb Company, priority 2023, published 2025)
Positions of bridges follow the written chain, without caps; N, C: chain ends. Non-standard residues stand in square brackets, D forms with d. Residues, ends and D or L forms follow the SMILES beside them. Ala(morpholin-4-yl) = N[C@@H](CN1CCOCC1)C(=O)O; Phe(4-CH2NH2) = NCc1ccc(C[C@H](N)C(=O)O)cc1; Bip = N[C@@H](Cc1ccc(-c2ccccc2)cc1)C(=O)O; Phe(3-OMe) = COc1cccc(C[C@H](N)C(=O)O)c1; Phe(4-NH2) = Nc1ccc(C[C@H](N)C(=O)O)cc1; Phe(4-F) = N[C@@H](Cc1ccc(F)cc1)C(=O)O; Phe(2-F) = N[C@@H](Cc1ccccc1F)C(=O)O; Val(3-OH) = CC(C)(O)[C@H](N)C(=O)O; 3Pal = N[C@@H](Cc1cccnc1)C(=O)O; Sar = CNCC(=O)O

target: TNFα (Homo sapiens, UniProt P01375); assay: TNF-Induced HEK-Blue Assay; format: cell-based; conditions: HEK-Blue-CD40L cells, NF-kB-driven secreted alkaline phosphatase reporter; TNFα 0.5 ng/ml; 18 h; read-out: TNF induced HEK-Blue assay IC50 value
Sequence (P01375 77-233 limits assumed): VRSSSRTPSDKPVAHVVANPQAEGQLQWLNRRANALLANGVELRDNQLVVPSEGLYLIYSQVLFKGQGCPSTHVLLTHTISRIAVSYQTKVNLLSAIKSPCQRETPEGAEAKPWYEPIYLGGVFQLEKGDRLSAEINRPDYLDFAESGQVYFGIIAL

IC50 [µM] | SMILES
0.05 to 0.2 | CC(C)C[C@@H]1NC(=O)[C@H](CCCNC(=N)N)NC(=O)[C@H](C(C)C)NC(=O)[C@@H]2CCCN2C(=O)[C@H](C(C)C)NC(=O)[C@H](CCCNC(=N)N)NC(=O)[C@H](CC(=O)O)NC(=O)[C@H](Cc2ccc(O)cc2)NC(=O)CN(C)C(=O)[C@H](Cc2ccc(-c3ccccc3)cc2)NC(=O)[C@H](Cc2ccc(-c3ccccc3)cc2)NC(=O)[C@H](CN2CCOCC2)NC(=O)CSC[C@@H](C(=O)NCC(N)=O)NC1=O [Example 47] ({CH2CO}-[Ala(morpholin-4-yl)][Bip][Bip][Sar]YDRVPVRLCG-NH2; thioether N-13)
0.05 to 0.2 | CC(C)C[C@@H]1NC(=O)[C@H](Cc2ccc(O)cc2)NC(=O)[C@H](C(C)C)NC(=O)[C@@H]2CCCN2C(=O)[C@H](C(C)C)NC(=O)[C@H](CCCNC(=N)N)NC(=O)[C@H](CC(=O)O)NC(=O)[C@@H]2CCCN2C(=O)CN(C)C(=O)[C@H](Cc2ccc(-c3ccccc3)cc2)NC(=O)[C@H](Cc2ccc(-c3ccccc3)cc2)NC(=O)[C@H](CN2CCOCC2)NC(=O)CSC[C@@H](C(=O)NCC(N)=O)NC1=O [Example 49] ({CH2CO}-[Ala(morpholin-4-yl)][Bip][Bip][Sar]PDRVPVYLCG-NH2; thioether N-13)
0.2 to 2 | CC(C)C[C@@H]1NC(=O)[C@H](CCCNC(=N)N)NC(=O)[C@H](C(C)C)NC(=O)[C@@H]2CCCN2C(=O)[C@H](Cc2ccc(CN)cc2)NC(=O)[C@H](CCCNC(=N)N)NC(=O)[C@H](CC(=O)O)NC(=O)[C@@H]2CCCN2C(=O)CN(C)C(=O)[C@H](Cc2ccc(-c3ccccc3)cc2)NC(=O)[C@H](Cc2ccc(-c3ccccc3)cc2)NC(=O)[C@H](CN2CCOCC2)NC(=O)CSC[C@@H](C(=O)NCC(N)=O)NC1=O [Example 51] ({CH2CO}-[Ala(morpholin-4-yl)][Bip][Bip][Sar]PDR[Phe(4-CH2NH2)]PVRLCG-NH2; thioether N-13)
0.2 to 2 | CC(C)C[C@@H]1NC(=O)[C@H](CCCNC(=N)N)NC(=O)[C@H](C(C)C)NC(=O)[C@@H]2CCCN2C(=O)[C@H](Cc2ccc(F)cc2)NC(=O)[C@H](CCCNC(=N)N)NC(=O)[C@H](CC(=O)O)NC(=O)[C@@H]2CCCN2C(=O)CN(C)C(=O)[C@H](Cc2ccc(-c3ccccc3)cc2)NC(=O)[C@H](Cc2ccc(-c3ccccc3)cc2)NC(=O)[C@H](CN2CCOCC2)NC(=O)CSC[C@@H](C(=O)NCC(N)=O)NC1=O [Example 52] ({CH2CO}-[Ala(morpholin-4-yl)][Bip][Bip][Sar]PDR[Phe(4-F)]PVRLCG-NH2; thioether N-13)
0.2 to 2 | CC(C)C[C@@H]1NC(=O)[C@H](CCCNC(=N)N)NC(=O)[C@H](C(C)C)NC(=O)[C@@H]2CCCN2C(=O)[C@H](Cc2ccccc2F)NC(=O)[C@H](CCCNC(=N)N)NC(=O)[C@H](CC(=O)O)NC(=O)[C@@H]2CCCN2C(=O)CN(C)C(=O)[C@H](Cc2ccc(-c3ccccc3)cc2)NC(=O)[C@H](Cc2ccc(-c3ccccc3)cc2)NC(=O)[C@H](CN2CCOCC2)NC(=O)CSC[C@@H](C(=O)NCC(N)=O)NC1=O [Example 53] ({CH2CO}-[Ala(morpholin-4-yl)][Bip][Bip][Sar]PDR[Phe(2-F)]PVRLCG-NH2; thioether N-13)
0.05 to 0.2 | CC(C)C[C@@H]1NC(=O)[C@H](CCCNC(=N)N)NC(=O)[C@H](C(C)C)NC(=O)[C@@H]2CCCN2C(=O)[C@H](Cc2cccnc2)NC(=O)[C@H](CCCNC(=N)N)NC(=O)[C@H](CC(=O)O)NC(=O)[C@@H]2CCCN2C(=O)CN(C)C(=O)[C@H](Cc2ccc(-c3ccccc3)cc2)NC(=O)[C@H](Cc2ccc(-c3ccccc3)cc2)NC(=O)[C@H](CN2CCOCC2)NC(=O)CSC[C@@H](C(=O)NCC(N)=O)NC1=O [Example 54] ({CH2CO}-[Ala(morpholin-4-yl)][Bip][Bip][Sar]PDR[3Pal]PVRLCG-NH2; thioether N-13)
0.05 to 0.2 | CC(C)C[C@@H]1NC(=O)[C@H](CCCNC(=N)N)NC(=O)[C@H](C(C)C)NC(=O)[C@@H]2CCCN2C(=O)[C@H](Cc2ccc(N)cc2)NC(=O)[C@H](CCCNC(=N)N)NC(=O)[C@H](CC(=O)O)NC(=O)[C@@H]2CCCN2C(=O)CN(C)C(=O)[C@H](Cc2ccc(-c3ccccc3)cc2)NC(=O)[C@H](Cc2ccc(-c3ccccc3)cc2)NC(=O)[C@H](CN2CCOCC2)NC(=O)CSC[C@@H](C(=O)NCC(N)=O)NC1=O [Example 55] ({CH2CO}-[Ala(morpholin-4-yl)][Bip][Bip][Sar]PDR[Phe(4-NH2)]PVRLCG-NH2; thioether N-13)
0.05 to 0.2 | CC(C)C[C@@H]1NC(=O)[C@H](CCCNC(=N)N)NC(=O)[C@H](C(C)C)NC(=O)[C@@H]2CCCN2C(=O)[C@H](Cc2ccc(O)cc2)NC(=O)[C@H](CCCNC(=N)N)NC(=O)[C@H](CC(=O)O)NC(=O)[C@@H]2CCCN2C(=O)CN(C)C(=O)[C@H](Cc2ccc(-c3ccccc3)cc2)NC(=O)[C@H](Cc2ccc(-c3ccccc3)cc2)NC(=O)[C@H](CN2CCOCC2)NC(=O)CSC[C@@H](C(=O)NCC(N)=O)NC1=O [Example 56] ({CH2CO}-[Ala(morpholin-4-yl)][Bip][Bip][Sar]PDRYPVRLCG-NH2; thioether N-13)
0.05 to 0.2 | CC(C)C[C@@H]1NC(=O)[C@H](CCCNC(=N)N)NC(=O)[C@H](C(C)C)NC(=O)[C@@H]2CCCN2C(=O)[C@H](Cc2ccc(F)cc2)NC(=O)[C@H](CCCNC(=N)N)NC(=O)[C@H](CC(=O)O)NC(=O)[C@@H]2CCCN2C(=O)CN(C)C(=O)[C@H](Cc2ccc(-c3ccccc3)cc2)NC(=O)[C@H](Cc2ccc(-c3ccccc3)cc2)NC(=O)[C@H](C(C)(C)O)NC(=O)CSC[C@@H](C(=O)NCC(N)=O)NC1=O [Example 58] ({CH2CO}-[Val(3-OH)][Bip][Bip][Sar]PDR[Phe(4-F)]PVRLCG-NH2; thioether N-13)
0.2 to 2 | CC(C)C[C@@H]1NC(=O)[C@H](CCCNC(=N)N)NC(=O)[C@H](C(C)C)NC(=O)[C@@H]2CCCN2C(=O)[C@H](Cc2ccc(N)cc2)NC(=O)[C@H](CCCNC(=N)N)NC(=O)[C@H](CC(=O)O)NC(=O)[C@@H]2CCCN2C(=O)CN(C)C(=O)[C@H](Cc2ccc(-c3ccccc3)cc2)NC(=O)[C@H](Cc2ccc(-c3ccccc3)cc2)NC(=O)[C@H](C(C)(C)O)NC(=O)CSC[C@@H](C(=O)NCC(N)=O)NC1=O [Example 61] ({CH2CO}-[Val(3-OH)][Bip][Bip][Sar]PDR[Phe(4-NH2)]PVRLCG-NH2; thioether N-13)

The remaining lines, values behind:

SMILES | IC50 [µM]
CC(C)C[C@@H]1NC(=O)[C@H](Cc2ccc(O)cc2)NC(=O)[C@H](C(C)C)NC(=O)[C@@H]2CCCN2C(=O)[C@H](C(C)C)NC(=O)[C@H](CCCNC(=N)N)NC(=O)[C@H](CC(=O)O)NC(=O)[C@H](Cc2ccc(O)cc2)NC(=O)CN(C)C(=O)[C@H](Cc2ccc(-c3ccccc3)cc2)NC(=O)[C@H](Cc2ccc(-c3ccccc3)cc2)NC(=O)[C@H](CN2CCOCC2)NC(=O)CSC[C@@H](C(=O)NCC(N)=O)NC1=O [Example 48] ({CH2CO}-[Ala(morpholin-4-yl)][Bip][Bip][Sar]YDRVPVYLCG-NH2; thioether N-13) | 0.2 to 2
CC(C)C[C@@H]1NC(=O)[C@H](Cc2ccc(O)cc2)NC(=O)[C@H](C(C)C)NC(=O)[C@@H]2CCCN2C(=O)[C@H](C(C)C)NC(=O)[C@H](CCCNC(=N)N)NC(=O)[C@H](CC(=O)O)NC(=O)[C@H](Cc2ccc(O)cc2)NC(=O)CN(C)C(=O)[C@H](Cc2ccc(-c3ccccc3)cc2)NC(=O)[C@H](Cc2ccc(-c3ccccc3)cc2)NC(=O)[C@H](C(C)(C)O)NC(=O)CSC[C@@H](C(=O)NCC(N)=O)NC1=O [Example 50] ({CH2CO}-[Val(3-OH)][Bip][Bip][Sar]YDRVPVYLCG-NH2; thioether N-13) | 0.05 to 0.2
CC(C)C[C@@H]1NC(=O)[C@H](CCCNC(=N)N)NC(=O)[C@H](C(C)C)NC(=O)[C@@H]2CCCN2C(=O)[C@H](Cc2ccc(CN)cc2)NC(=O)[C@H](CCCNC(=N)N)NC(=O)[C@H](CC(=O)O)NC(=O)[C@@H]2CCCN2C(=O)CN(C)C(=O)[C@H](Cc2ccc(-c3ccccc3)cc2)NC(=O)[C@H](Cc2ccc(-c3ccccc3)cc2)NC(=O)[C@H](C(C)(C)O)NC(=O)CSC[C@@H](C(=O)NCC(N)=O)NC1=O [Example 57] ({CH2CO}-[Val(3-OH)][Bip][Bip][Sar]PDR[Phe(4-CH2NH2)]PVRLCG-NH2; thioether N-13) | 0.05 to 0.2
CC(C)C[C@@H]1NC(=O)[C@H](CCCNC(=N)N)NC(=O)[C@H](C(C)C)NC(=O)[C@@H]2CCCN2C(=O)[C@H](Cc2ccccc2F)NC(=O)[C@H](CCCNC(=N)N)NC(=O)[C@H](CC(=O)O)NC(=O)[C@@H]2CCCN2C(=O)CN(C)C(=O)[C@H](Cc2ccc(-c3ccccc3)cc2)NC(=O)[C@H](Cc2ccc(-c3ccccc3)cc2)NC(=O)[C@H](C(C)(C)O)NC(=O)CSC[C@@H](C(=O)NCC(N)=O)NC1=O [Example 59] ({CH2CO}-[Val(3-OH)][Bip][Bip][Sar]PDR[Phe(2-F)]PVRLCG-NH2; thioether N-13) | 0.2 to 2
CC(C)C[C@@H]1NC(=O)[C@H](CCCNC(=N)N)NC(=O)[C@H](C(C)C)NC(=O)[C@@H]2CCCN2C(=O)[C@H](Cc2cccnc2)NC(=O)[C@H](CCCNC(=N)N)NC(=O)[C@H](CC(=O)O)NC(=O)[C@@H]2CCCN2C(=O)CN(C)C(=O)[C@H](Cc2ccc(-c3ccccc3)cc2)NC(=O)[C@H](Cc2ccc(-c3ccccc3)cc2)NC(=O)[C@H](C(C)(C)O)NC(=O)CSC[C@@H](C(=O)NCC(N)=O)NC1=O [Example 60] ({CH2CO}-[Val(3-OH)][Bip][Bip][Sar]PDR[3Pal]PVRLCG-NH2; thioether N-13) | 0.2 to 2
CC(C)C[C@@H]1NC(=O)[C@H](Cc2ccc(O)cc2)NC(=O)[C@H](C(C)C)NC(=O)[C@@H]2CCCN2C(=O)[C@H](C(C)C)NC(=O)[C@@H](CCCNC(=N)N)NC(=O)[C@H](CC(=O)O)NC(=O)[C@H](Cc2ccc(O)cc2)NC(=O)CN(C)C(=O)[C@H](Cc2ccc(-c3ccccc3)cc2)NC(=O)[C@H](Cc2ccc(-c3ccccc3)cc2)NC(=O)[C@H](Cc2ccccc2)NC(=O)CSC[C@@H](C(=O)NCC(N)=O)NC1=O [Example 62] ({CH2CO}-F[Bip][Bip][Sar]YD[dR]VPVYLCG-NH2; thioether N-13) | 0.05 to 0.2
COc1cccc(C[C@@H]2NC(=O)[C@H](C(C)C)NC(=O)[C@@H]3CCCN3C(=O)[C@H](C(C)C)NC(=O)[C@H](CCCNC(=N)N)NC(=O)[C@H](CC(=O)O)NC(=O)[C@@H]3CCCN3C(=O)CN(C)C(=O)[C@H](Cc3ccc(-c4ccccc4)cc3)NC(=O)[C@H](Cc3ccc(-c4ccccc4)cc3)NC(=O)[C@H](Cc3ccccc3)NC(=O)CSC[C@@H](C(=O)NCC(N)=O)NC(=O)[C@H](CC(C)C)NC2=O)c1 [Example 63] ({CH2CO}-F[Bip][Bip][Sar]PDRVPV[Phe(3-OMe)]LCG-NH2; thioether N-13) | 0.2 to 2
